Test results reported in US12209038B2, “Effluent” (LINCOLN UNIVERSITY, priority 2019, dated 2025).
Read-outs that look alike come from different tables or passages of the source.

Tests used:
[1] = Experiment 7: glass jars, different sulphate and/or iron compounds, methane and hydrogen sulphide
Procedure: The objective of Experiment 7 was to measure the effect of different sulphate and/or iron compounds on emissions of methane and hydrogen sulphide gases from treated effluent. The experiment was conducted using the same 1.5 L glass jars and methods of measurement described in Experiment 2 above. There were 10 treatments: (i) untreated FDE, (ii) PFS treated effluent, (iii) calcium sulphate (CaSO4) treated effluent, (iv) potassium sulphate (K2SO4) treated effluent, (v) aluminium sulphate (Al2(SO4)3) treated effluent, (vi) magnesium sulphate (MgSO4) treated effluent, (vii) sodium sulphate (Na2SO4) treated effluent, (viii), ferrous sulphate (i.e. the divalent form of iron sulphate) (FeSO4) treated effluent, (ix) ferric chloride (FeCl3) treated effluent, and (x) ferrous chloride (FeCl2) treated effluent. The sulphate treatment chemicals were all used at the same rate of sulphate as applied in the PFS treatment (326 mg SO4/L) and the iron treatment chemicals were all used at the same rate of iron as applied in the PFS treatment (133 mg Fe/L).

[2] = 200 mg Fe/L of FDE, same rate of PFS and FS
Procedure: The objective of Experiment 6 was to compare the effectiveness of ferric sulphate (FS) versus polyferric sulphate (PFS) to reduce methane emissions from treated effluent. Experiment 6 was conducted using the same large (3.5 m deep×0.5 m diameter) PVC pipes described in Experiment 5. The gas capture equipment and measurement process were also identical to that described in Experiment 5.
There were three treatments: (i) untreated FDE; (ii) TE produced using PFS and (iii) TE produced using FS. There were four replicates of each treatment set out in a randomised block design. Five hundred and sixty litres of farm dairy effluent were pumped from the FDE storage pond on Lincoln University Dairy Farm into each column leaving a head space height of 10 cm. The same rate of PFS and FS was used (200 mg Fe/L of FDE). The PFS and FS solution was mixed into the effluent for two minutes using a handheld electric drill fitted with a paddle stirrer.

[3] = iron chemicals at 133 mg Fe/L, same iron rate as PFS treatment

Compound | amount of methane emitted from FDE [1] | effectiveness in reducing methane emitted compared with PFS [1] | emission of hydrogen sulphide (H2S) [1] | also measured
O=S(=O)([O-])[O-].[K+].[K+] [potassium sulphate] | can be reduced | none of these chemicals were as effective as PFS | continued to produce, or enhanced the production of | –
O=S(=O)([O-])[O-].[Ca+2] [calcium sulphate] | can be reduced | none of these chemicals were as effective as PFS | continued to produce, or enhanced the production of | –
O=S(=O)([O-])[O-].[Fe+2] [ferrous sulphate] | – | – | – | effectiveness in reducing methane emission compared with PFS [1]: not nearly as effective
O=S(=O)([O-])[O-].[Mg+2] [magnesium sulphate] | can be reduced | none of these chemicals were as effective as PFS | continued to produce, or enhanced the production of | –
O=S(=O)([O-])[O-].O=S(=O)([O-])[O-].O=S(=O)([O-])[O-].[Fe+3].[Fe+3] [FS, ferric sulphate] | – | – | – | effectiveness in reducing the methane emission flux compared with PFS [2]: equally as effective; effectiveness in reducing the total amount of methane emitted compared with PFS [2]: equally as effective
[Cl][Fe][Cl] [ferrous chloride] | – | – | – | effectiveness in reducing methane emission compared with PFS [1, 3]: not nearly as effective
O=S(=O)([O-])[O-].[Na+].[Na+] [sodium sulphate] | can be reduced | none of these chemicals were as effective as PFS | continued to produce, or enhanced the production of | –
[Cl][Fe]([Cl])[Cl] [ferric chloride] | – | – | – | effectiveness in reducing methane emission compared with PFS [1, 3]: not nearly as effective
